This is an account of results in patent US9352015B2, “Antimicrobial peptides” (priority 2009, dated 2016).

≈ marks a conversion by molar mass, not a printed value. Where “and” joins values, the source holds several entries; their conditions need not be identical. Identical values can stand only once. Like-named read-outs stand apart in the source and are kept apart here.

The nature of data set [1]: RP-HPLC retention as measure of overall peptide hydrophobicity. Particulars: for Change in hydrophobicity (retention time) relative to PVL: 80° C., polar face substitution. The data set is classed as physicochemical. The method, then:
Crude and purified peptides were analyzed on an Agilent 1100 series liquid chromatograph (Little Falls, Del.). Runs were performed on a Zorbax 300 SB-C8 column (150×2.1 mm I.D.; 5 μm particle size, 300 Å pore size) from Agilent Technologies using linear AB gradient (1% acetonitrile/min) and a flow rate of 0.25 ml/min, where eluant A was 0.2% aqueous TFA, pH 2 and eluant B was 0.2% TFA in acetonitrile.

The nature of data set [2]: Hemolytic activity against human erythrocytes (HC50 / MHC, microtiter dilution). The data set is classed as cell-based. Particulars: human, 1% human erythrocytes, pH 7.4. The method, then:
Hemoglobin release was determined spectrophotometrically at 570 nm. The hemolytic activity was determined as the peptide concentration that caused 50% hemolysis of erythrocytes after 18 h (HC50). […] HC50 was determined by a plot of peptide concentration versus percent lysis.

Data set [3] concerns Acinetobacter baumannii. The data set is classed as cell-based. The following applies: for Acinetobacter baumannii MICGM: geometric mean, 11 different isolates, 24 hours at 37° C. The method, then: (§1) Minimal inhibitory concentrations (MICs) are determined using a standard microtiter dilution method, with 3 sets of determinations, in LB (Luria-Bertani) no-salt medium (10 g of tryptone and 5 g of yeast extract per liter). In some cases, Mueller Hinton (MH) medium or Brain Heart Infusion (BHI) medium is used.
(§2) Briefly, cells were grown overnight at 37° C. in LB and diluted in the same medium. Serial dilutions of the peptides are added to the microtiter plates in a volume of 100 μl followed by 10 μl of bacteria to give a final inoculum of 5×10^5 colony-forming units/ml. Plates are incubated at 37° C. for 24 hours and MICs determined as the lowest peptide concentration that inhibited growth. Alternatively, minimal inhibitory concentrations are determined using a standard microtiter dilution method in a Mueller-Hinton (MH) medium. Briefly, cells are grown overnight at 37° C. in MH broth and diluted in the same medium. In some cases, serial dilutions of the peptides are added to the microtiter plates in a volume of 100 μl followed by 10 μl of bacteria to give a final inoculum of 1×10^5 colony-forming units/ml. Plates are incubated at 37° C. for 24 hours and MICs are determined as the lowest peptide concentration that inhibited growth.
The biological activities of these six peptide analogs was determined against 11 clinical isolated of Acinetobacter baumannii (Table 9). Please note that the activities are reported in micromolar rather than microgram/ml. This allows a direct comparison on a molar basis with the effectiveness of molecules of different molecular weights whether peptides disclosed herein or antibiotics which in general are smaller in molecular mass. […] These are the highest antimicrobial activities observed in studies of antimicrobial peptides derived by modifying the peptide sequence of SEQ ID NO:24 (D1). D22 has the best hemolytic activity of the six analogs (D17-D22) and a therapeutic index of […] compared to […] for D1 (Table 9). D22 has no apparent advantage over D1 as determined in these experiments.

In data set [4] the test system is Methicillin Resistant Staphylococcus aureus (MRSA) and Staphylococcus aureus. The data set is classed as cell-based. The method, then:
as §1, §2
Identification of Antimicrobial Peptides for Gram-positive Bacteria. In a manner similar to testing against gram-negative bacteria, experiments were carried out to screen the 14 peptides used to identify antimicrobial peptides with significant activity against A. baumanii shown above against 20 different clinical isolates of Methicillin Resistant Staphylococcus aureus (MRSA) and Staphylococcus aureus.

The test system of data set [5] is Pseudomonas aeruginosa. Particulars: for Pseudomonas aeruginosa MICGM: geometric mean, 6 different isolates, 24 hours at 37° C.; for MIC PAO 1: 37° C., 24 h, strain PAO1; for MIC GM (geometric mean of the MIC values): six P. aeruginosa strains; for MIC CP 204: strain CP204; for MIC M 2: strain M2; for MIC PA 14: strain PA14; for MIC PAK: strain PAK; for MIC WR 5: strain WR5.

Data set [6] can be described thus: RP-HPLC temperature profiling (peptide self-association parameter PA). The class given is physicochemical. Particulars: enantiomer pairs of V681 analogs, 5° C. to 80° C., relative to peptide C. The method, then:
Temperature profiling analyses were performed on the same column in 3° C. increments, from 5° C. to 80° C., using a linear AB gradient of 0.5% acetonitrile/min, as described previously (30, 53, 92, 93).
Peptide self-association (i.e., the ability to oligomerize/dimerize) in aqueous solution is a very important parameter for antimicrobial activity (53, 92, 93). Without wishing to be bound by any particular theory, the present inventors postulated that monomeric random-coil antimicrobial peptides are best suited to pass through the capsule and cell wall of microorganisms prior to penetration into the cytoplasmic membrane, induction of α-helical structure and disruption of membrane structure to kill target cells (93). Thus, if the self-association ability of a peptide in aqueous media is too strong (e.g., forming stable folded dimers through interaction of their non-polar faces) this could decrease the ability of the peptide to dissociate to monomer, in addition oligomerization of the peptide can prevent it from effectively passing through the capsule and cell wall to reach the membrane. The ability of the peptides in the present study to self-associate was determined by the technique of RP-HPLC temperature profiling at pH 2 (29, 30, 38). The reason pH 2 is used to determine self-association of cationic AMPs is that highly positively charged peptides are frequently not eluted from reversed-phase columns at pH 7 due to non-specific binding to negatively charged silanols on the column matrix. This is not a problem at pH 2 since the silanols are protonated (i.e., neutral) and non-specific electrostatic interactions are eliminated. At pH 2, the interactions between the peptide and the reversed-phase matrix involve ideal retention behavior, i.e., only hydrophobic interactions between the preferred binding domain (nonpolar face) of the amphipathic molecule and the hydrophobic surface of the column matrix are present (39). […] Control peptide C is a monomeric random coil peptide in both aqueous and hydrophobic media; thus, its linear decrease in peptide retention behavior with increasing temperature within the range of 5° C. to 80° C. represents only the general effects of temperature due to greater solute diffusivity and enhanced mass transfer between the stationary and mobile phase at higher temperatures (55). To allow for these general temperature effects, the data for the control peptide was subtracted from each temperature profile as shown in FIG. 2B. Thus, the peptide self-association parameter, PA, represents the maximum change in peptide retention time relative to the random coil peptide C. Note that the higher the PA value, the greater the self-association.

Consider “PAL: V681 with L-Ala at position 11, SEQ ID NO:14 (KWKSFLKTFKAAVKTVLHTALKAISS)”, for which the “Change in hydrophobicity (retention time) relative to PVL” value in data set [1] was “+0.45 min”.
`CC[C@@H](C)[C@@H](NC(=O)[C@@H](CC(C)C)NC(=O)[C@@H](CCCCN)NC(=O)[C@@H](CC(C)C)NC(=O)[C@@H](CC(C)C)NC(=O)[C@H](NC(=O)[C@@H](CCCCN)NC(=O)[C@@H](CC(C)C)NC(=O)[C@@H](CCCCN)NC(=O)[C@@H](CCCCN)NC(=O)[C@@H](CCCCN)NC(=O)[C@@H](CCCCN)NC(=O)[C@@H](CC(C)C)NC(=O)[C@@H](CCCCN)NC(=O)[C@@H](CO)NC(=O)[C@@H](Cc1ccccc1)NC(=O)[C@H](NC(=O)[C@@H](CCCCN)NC(=O)[C@@H](CC(C)C)NC(=O)[C@@H](Cc1ccccc1)NC(=O)[C@@H](CO)NC(=O)[C@@H](CCCCN)NC(=O)[C@@H](Cc1c[nH]c2ccccc12)NC(=O)[C@@H](CCCCN)NC(C)=O)[C@H](C)O)[C@H](C)O)C(=O)N[C@H](CO)C(=O)N[C@H](CCCCN)C(N)=O` [Peptide D12, Ac-KWKSFLKTFSKLKKKKLKTLLKLISK-amide]: the HC50 (usually the concentration giving 50% haemolysis) at 18 h in data set [2] turned out to be 18.3 µM. The “MIC GM (geometric mean)” value is 1.9 µM (≈ 6.09 µg/mL) in data set [3] and 5.2 µM (≈ 16.7 µg/mL) in data set [4]. In data set [3], this compound had an Acinetobacter baumannii MICGM of 1.9 µM. Further, the Pseudomonas aeruginosa MICGM in data set [5] stood at 3.9 µM.
In the case of “D-NAL: enantiomer of NAD, SEQ ID NO:25 (KWKSFLKTFKSAAKTVLHTALKAISS; not fully specified; D-amino acids)”, the “PA (peptide self-association parameter)” value in data set [6] is given as 4.1.
The same measure, in the same setting: to “D-V681: D-enantiomer of V681 (KWKSFLKTFKSAVKTVLHTALKAISS; all D-amino acids)” belongs 7.2.
In data set [2], `CC[C@@H](C)[C@@H](NC(=O)[C@@H](C)NC(=O)[C@@H](CCCCN)NC(=O)[C@@H](CC(C)C)NC(=O)[C@@H](CC(C)C)NC(=O)[C@H](NC(=O)[C@@H](CCCCN)NC(=O)[C@@H](CC(C)C)NC(=O)[C@@H](CCCCN)NC(=O)[C@@H](CCCCN)NC(=O)[C@@H](CCCCN)NC(=O)[C@@H](CCCCN)NC(=O)[C@@H](CC(C)C)NC(=O)[C@@H](CCCCN)NC(=O)[C@@H](CO)NC(=O)[C@@H](Cc1ccccc1)NC(=O)[C@H](NC(=O)[C@@H](CCCCN)NC(=O)[C@@H](CC(C)C)NC(=O)[C@@H](Cc1ccccc1)NC(=O)[C@@H](CO)NC(=O)[C@@H](CCCCN)NC(=O)[C@@H](Cc1c[nH]c2ccccc12)NC(=O)[C@@H](CCCCN)NC(C)=O)[C@H](C)O)[C@H](C)O)C(=O)N[C@H](CO)C(=O)N[C@H](CCCCN)C(N)=O` [Peptide D13, Ac-KWKSFLKTFSKLKKKKLKTLLKAISK-amide] gave a 50% haemolytic concentration (HC50) at 18 h of 106 µM. Further, in data set [3], the “MIC GM (geometric mean)” value turned out to be 1.0 µM (≈ 3.16 µg/mL) and the Acinetobacter baumannii MICGM worked out at 1 µM. The “MIC GM (geometric mean)” value in data set [4] is 8.6 µM (≈ 27.2 µg/mL). In data set [5], this compound came in with a Pseudomonas aeruginosa MICGM of 2.5 µM.
“PKL: V681 with L-Lys at position 11, SEQ ID NO:17 (KWKSFLKTFKKAVKTVLHTALKAISS)”: the “Change in hydrophobicity (retention time) relative to PVL” value in data set [1] is -2.29 min.
For the compound `CC[C@@H](C)[C@@H](NC(=O)[C@@H](CC(C)C)NC(=O)[C@@H](CCCCN)NC(=O)[C@@H](CC(C)C)NC(=O)[C@@H](CC(C)C)NC(=O)[C@H](NC(=O)[C@@H](Cc1c[nH]cn1)NC(=O)[C@@H](CC(C)C)NC(=O)[C@@H](CCCCN)NC(=O)[C@H](NC(=O)[C@@H](CCCCN)NC(=O)[C@@H](CCCCN)NC(=O)[C@@H](CC(C)C)NC(=O)[C@@H](CO)NC(=O)[C@@H](CCCCN)NC(=O)[C@@H](Cc1ccccc1)NC(=O)[C@H](NC(=O)[C@@H](CCCCN)NC(=O)[C@@H](CC(C)C)NC(=O)[C@@H](Cc1ccccc1)NC(=O)[C@@H](CO)NC(=O)[C@@H](CCCCN)NC(=O)[C@@H](Cc1c[nH]c2ccccc12)NC(=O)[C@@H](CCCCN)NC(C)=O)[C@H](C)O)[C@H](C)O)[C@H](C)O)C(=O)N[C@H](CO)C(=O)N[C@H](CO)C(N)=O` [Peptide D5, Ac-KWKSFLKTFKSLKKTKLHTLLKLISS-amide], in data set [2], the HC50 at 18 h is 47 µg/mL and 14.9 µM. Further, in data set [3], the “MIC GM (geometric mean)” value turned out to be 1.7 µM (≈ 5.35 µg/mL) and the Acinetobacter baumannii MICGM is 1.7 µM. Also, the “MIC GM (geometric mean)” value in data set [4] worked out at 5.4 µM (≈ 17 µg/mL). Besides, in data set [1] (pH 2, room temperature), the “Hydrophobicity (retention time in RP-HPLC)” value worked out at 80.44 min. Besides, in data set [5] (Brain Heart Infusion medium), the “MIC PAO 1” value came to 31.3 µg/mL (≈ 9.95 µM), the “MIC GM (geometric mean of the MIC values)” value is 22.1 µg/mL, the “MIC CP 204” value was determined as 31.3 µg/mL (≈ 9.95 µM) and the “MIC M 2” value came out at 15.6 µg/mL (≈ 4.96 µM). For the same compound, in data set [5] (Brain Heart Infusion medium), the “MIC PA 14” value turned out to be 15.6 µg/mL (≈ 4.96 µM), the “MIC PAK” value is 31.3 µg/mL (≈ 9.95 µM) and the “MIC WR 5” value stood at 15.6 µg/mL (≈ 4.96 µM). In addition, in data set [5] (Mueller Hinton medium), the “MIC PAO 1” value was found to be 7.8 µg/mL (≈ 2.48 µM), the “MIC GM (geometric mean of the MIC values)” value came out at 11.0 µg/mL, the “MIC CP 204” value stood at 15.6 µg/mL (≈ 4.96 µM) and the “MIC M 2” value was found to be 7.8 µg/mL (≈ 2.48 µM). Further, in data set [5] (Mueller Hinton medium), the “MIC PA 14” value worked out at 7.8 µg/mL (≈ 2.48 µM), the “MIC PAK” value worked out at 15.6 µg/mL (≈ 4.96 µM) and the “MIC WR 5” value was 15.6 µg/mL (≈ 4.96 µM). This compound also had a Pseudomonas aeruginosa MICGM in data set [5] of 3.5 µM.
